According to patent publication EP4635565A1, “PRENYLATED TETRAHYDROQUINOLINES AND QUINOLINES WITH PPAR AGONIST ACTIVITY” (Fundación para la Investigación del Hospital Clínico de la …, priority 2024, dated 2025):

Legend:
hPPARα = biological target: T1, hPPARα (Homo sapiens, UniProt Q07869); test: PPAR transactivation assay, human chimeric PPAR/Gal4 reporter luciferase system in Cos-7 cells (PPARα); type: cell-based
T1 sequence (Q07869 167-468): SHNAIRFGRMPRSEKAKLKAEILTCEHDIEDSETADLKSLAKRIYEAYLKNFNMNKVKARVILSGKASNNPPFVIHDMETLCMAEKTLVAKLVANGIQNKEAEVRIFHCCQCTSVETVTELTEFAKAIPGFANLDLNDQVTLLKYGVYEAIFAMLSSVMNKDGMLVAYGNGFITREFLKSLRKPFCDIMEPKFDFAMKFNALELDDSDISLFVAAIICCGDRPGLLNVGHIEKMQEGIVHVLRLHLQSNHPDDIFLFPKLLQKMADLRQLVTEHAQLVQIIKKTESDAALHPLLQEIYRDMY
Description: (§1) Transfections were stopped after 16 h by adding DMEM/10% FCS. Cells were detached with trypsin, re-seeded in 96-well plates for 6 h in DMEM/10% FCS, and incubated for 24 h in DMEM/0.2% FCS with increasing concentrations of the test compounds or vehicle (DMSO, 0.1% final concentration). At the end of the experiment, cells were washed once with ice-cold PBS, lysed, and luciferase and β-galactosidase activities were measured. Luciferase activity was normalised to that of the internal control, β-galactosidase. All transfection experiments were performed at least five times.
(§2) EC50 values against human PPARα/Gal4, PPARβ/δ/Gal4 and PPARγ/Gal4 receptors.

hPPARβ/δ = biological target: T2, hPPARβ/δ (Homo sapiens, UniProt Q03181); test: PPAR transactivation assay, human chimeric PPAR/Gal4 reporter luciferase system in Cos-7 cells (PPARβ/δ); type: cell-based
T2 sequence (Q03181 171-441): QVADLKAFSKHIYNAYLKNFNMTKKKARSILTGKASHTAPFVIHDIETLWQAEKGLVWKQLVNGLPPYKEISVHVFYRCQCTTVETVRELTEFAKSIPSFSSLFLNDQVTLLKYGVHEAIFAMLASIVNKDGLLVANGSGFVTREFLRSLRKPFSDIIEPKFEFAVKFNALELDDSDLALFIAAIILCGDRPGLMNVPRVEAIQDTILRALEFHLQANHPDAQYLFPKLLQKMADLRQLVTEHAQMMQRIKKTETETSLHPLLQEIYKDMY
Description: as §1, §2

hPPARγ = biological target: T3, hPPARγ (Homo sapiens, UniProt P37231); test: PPAR transactivation assay, human chimeric PPAR/Gal4 reporter luciferase system in Cos-7 cells (PPARγ); type: cell-based
T3 sequence (P37231 238-505): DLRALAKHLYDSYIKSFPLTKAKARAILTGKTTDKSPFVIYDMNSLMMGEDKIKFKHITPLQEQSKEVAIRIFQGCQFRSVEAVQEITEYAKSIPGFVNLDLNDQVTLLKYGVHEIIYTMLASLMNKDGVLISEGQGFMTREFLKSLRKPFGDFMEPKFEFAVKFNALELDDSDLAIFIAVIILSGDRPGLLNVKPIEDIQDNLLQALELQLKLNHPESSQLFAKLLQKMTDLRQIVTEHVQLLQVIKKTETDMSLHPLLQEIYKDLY
Description: as §1, §2

[1] = test system: TNFα-induced proinflammatory genes; test: TNFα-induced pro-inflammatory gene expression by RT-qPCR in L929sA WT cells; type: cell-based, mouse; conditions: 10 µM for 1 h, then TNFa, total induction time 6 h
Description: RNA was isolated using the RNeasy Purification Kit (Qiagen) according to the manufacturer's instructions. cDNA was synthesised using a PrimeScript kit (Takara). RT-qPCR was performed using Light Cycler 480 SYBR Green I Master Mix (Roche).
PPARs play crucial roles in controlling inflammatory responses. NF-κB is a transcription factor that plays a pivotal role in the expression of multiple genes involved in the immune and inflammatory responses. To study the potential anti-inflammatory effects of the tetrahydroquinolines and quinolines of the invention, the NF-κB-dependent physiological human IL-8 promoter construct, p1481.IL8P-Luc+, which is stably integrated into L929sA cells, was tested. After transfection, cells were treated at 10 µM with 5a, 5b, 8a, or 8b prior to TNFa stimulation. […] Given the significant decrease in NF-κB-IL8P-Luc+ reporter gene activity observed after treatment with the 2- or 3-prenylated tetrahydroquinolines 5a and 5b and the 3-prenylated quinoline 8b, their potential anti-inflammatory effects at the transcriptional level for other inflammatory mediators was evaluated. To achieve this, the L929sA WT cells were treated with 5a, 5b and 8b at 10 µM for 1 h, followed by TNFa stimulation for a total induction time of 6 h. The expression of inflammatory genes was evaluated by RT-qPCR.

ob/ob mice = test: Gene expression (qPCR) in liver and epididymal white adipose tissue of ob/ob mice; type: in vivo; conditions: epididymal white adipose tissue and/or liver of ob/ob mice, 10 mg/kg/day, 15 days orally
Description: Animal studies were carried out in accordance with Directive 2010/63/EU for experimentation on animals. The handling of the animals and the experimental protocols were approved by the Animal Experimentation Ethics Committee of the University of Valencia (Protocol No. A1469445706311). Six-week-old male ob/ob mice (C57BL/6.Cg-Lepob/J) were supplied by Charles River Laboratories International (Wilmington, MA). Blood samples were collected from mice fasted for 6 hours to determine basal blood glucose levels. The animals, randomly divided into two groups (N ≈ 10-11 per group), were treated daily with vehicle (1% hydroxyethyl cellulose, Sigma-Aldrich) or with tetrahydroquinoline 5a at 10 mg/kg/day, for 15 days orally. After 15 days of treatment, and 6 h of fasting, the mice were anesthetized by inhalation of isoflurane and blood samples were collected in tubes with heparin or EDTA by intracardiac puncture. Plasma samples were obtained and stored at -80°C. Liver and epididymal white adipose tissue were removed and part of both organs were quickly frozen in liquid N2 for qPCR studies.
Gene expression analysis was carried out by real-time qPCR. To this end, total RNA was extracted from liver and epididymal white adipose tissue biopsies using TRIzol reagent (Invitrogen, Carlsbad, CA, USA). The isolated RNA was retro-transcribed using the Maxima First-Strand kit and amplified with a Luminaris Color qPCR MasterMIX (Fermentas, Whaltham, MA, USA) in a 7900 FastSystem thermal cycler. The mRNA levels were normalized to the expression of the constitutive gene cyclophilin.

CCOC(=O)CC/C(C)=C/CCC1CCc2cc(OCc3ccccc3)ccc2N1C (stereo not shown) [Compound 5a, Ethyl (E)-7-(6-(benzyloxy)-1-methyl-1,2,3,4-tetrahydroquinolin-2-yl)-4-methylhept-4-enoate]
EC50 (hPPARα): 3600 nM
Emax at 10 µM (hPPARα; COS-7, read-out: Efficacy (%) at 10 µmol/L PPARα): 76%
Emax at 10 µM (hPPARβ/δ; COS-7, read-out: Efficacy (%) at 10 µmol/L PPARβ/δ): 60%
EC50 (hPPARβ/δ; human PPARβ/δ/Gal4, Cos-7 cells, concentration range 0.001-10 µmol/L, NA: not active): 2600 nM
Emax at 10 µM (hPPARγ; COS-7, read-out: Efficacy (%) at 10 µmol/L PPARγ): 43%
EC50 (hPPARγ; human PPARγ/Gal4, Cos-7 cells, concentration range 0.001-10 µmol/L, NA: not active): 2700 nM
transcription of TNFα-induced proinflammatory genes [1]: downregulated the transcription of TNFα-induced proinflammatory genes such as Cc/5 and II-6
expression of Acox1 (ob/ob mice): increased
expression of Cpt1a (ob/ob mice): increased
expression of Pdk4 (ob/ob mice): increased
